Reference: patent US7416848B2, “DNA encoding SNORF25 receptor” (H. Lundbeck A/S, priority 1999, dated 2008)

How the values were obtained:
[1] = test system: control (CFTR alone) oocytes; test: CFTR Cl- currents in control oocytes injected with only CFTR mRNA; format: cell-based, Xenopus laevis; conditions: 10 μM
[2] = biological target: T1, dopamine D5 receptor (Homo sapiens, UniProt P21918); test: cAMP in Cos-7 cells transfected with dopamine D5 receptor; format: cell-based; conditions: 10 μM, dopamine D5 (FIG. 7)
T1 construct: expressed in transfected cells; host or cells: Cos-7 cells
Method: (§1) A typical protocol for the electroporation method as applied to Cos-7 cells is described as follows. Cells to be used for transfection are split 24 hours prior to the transfection to provide flasks which are subconfluent at the time of transfection. The cells are harvested by trypsinization resuspended in their growth media and counted. 5×10^6 cells are suspended in 300 μl of DMEM and placed into an electroporation cuvette. 8 μg of receptor DNA plus 8 μg of any additional DNA needed (e.g. G protein expression vector, reporter construct, antibiotic resistance marker, mock vector, etc.) is added to the cell suspension, the cuvette is placed into a BioRad Gene Pulser and subjected to an electrical pulse (Gene Pulser settings: 0.25 kV voltage, 950 μF capacitance). Following the pulse, 800 μl of complete DMEM is added to each cuvette and the suspension transferred to a sterile tube. Complete medium is added to each tube to bring the final cell concentration to 1×10^5 cells/100 μl. […]
(§2) The receptor-mediated stimulation or inhibition of cyclic AMP (cAMP) formation may be assayed in cells expressing the receptors. […] The plates are stored at 4° C. for 15 min, and the cAMP content in the stopping solution is measured by radioimmunoassay. Radioactivity may be quantified using a gamma counter equipped with data reduction software. […]

[3] = biological target: T2, serotonin 5-HT6 receptor (Homo sapiens, UniProt P50406); test: cAMP in Cos-7 cells transfected with serotonin 5-HT6 receptor; format: cell-based; conditions: 10 μM, serotonin 5-HT6 (FIG. 7)
T2 construct: expressed in transfected cells; host or cells: Cos-7 cells
Method: as §1, §2

[4] = biological target: T3, dopamine D1 receptor (Homo sapiens, UniProt P21728); test: cAMP in Cos-7 cells transfected with dopamine D1 receptor; format: cell-based; conditions: 10 μM, dopamine D1 (FIG. 7)
T3 construct: expressed in transfected cells; host or cells: Cos-7 cells
Method: as §1, §2

[5] = biological target: T4, SNORF25 receptor (Rattus norvegicus, UniProt Q7TQN8); test: IP release in SNORF25-transfected CHO cells; format: cell-based
T4 construct: the entire coding region was amplified from Rin14b cell line cDNA and rat genomic DNA; expressed in transfected cells; host or cells: CHO cells, transient (electroporation)
T4 sequence (Q7TQN8 with tags, fused parts or gaps limits assumed): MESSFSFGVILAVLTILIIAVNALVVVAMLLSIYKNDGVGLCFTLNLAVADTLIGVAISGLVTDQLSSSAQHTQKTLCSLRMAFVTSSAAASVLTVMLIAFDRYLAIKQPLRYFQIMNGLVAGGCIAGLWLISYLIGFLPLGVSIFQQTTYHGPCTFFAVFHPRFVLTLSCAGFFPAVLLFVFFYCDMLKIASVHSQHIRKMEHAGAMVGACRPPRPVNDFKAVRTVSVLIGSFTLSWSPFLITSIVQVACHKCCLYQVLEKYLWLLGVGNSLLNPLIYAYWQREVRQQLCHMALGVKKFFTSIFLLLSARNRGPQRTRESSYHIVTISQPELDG
Method: In a 96 well microplate format assay, cells are plated at a density of 70,000 cells per well and allowed to incubate for 24 hours. The cells are then labeled with 0.5 μCi [^3H]-myo-inositol overnight at 37° C., 5% CO2. Immediately before the assay, the medium is removed and replaced with 90 μL of PBS containing 10 mM LiCl. The plates are then incubated for 15 min at 37° C., 5% CO2. Following the incubation, the cells are challenged with agonist (10 μl/well; 10× concentration) for 30 min at 37° C., 5% CO2. The challenge is terminated by the addition of 100 μL of 50% v/v trichloroacetic acid, followed by incubation at 4° C. for greater than 30 minutes. Total IPs are isolated from the lysate by ion exchange chromatography. Briefly, the lysed contents of the wells are transferred to a Multiscreen HV filter plate (Millipore) containing Dowex AG1-X8 (200–400 mesh, formate form). The filter plates are prepared adding 100 μL of Dowex AG1-X8 suspension (50% v/v, water: resin) to each well. The filter plates are placed on a vacuum manifold to wash or elute the resin bed. Each well is first washed 2 times with 200 μl of 5 mM myo-inositol. Total [^3H]inositol phosphates are eluted with 75 μl of 1.2M ammonium formate/0.1M formic acid solution into 96-well plates. 200 μL of scintillation cocktail is added to each well, and the radioactivity is determined by liquid scintillation counting. […]

T3 sequence (P21728 whole entry): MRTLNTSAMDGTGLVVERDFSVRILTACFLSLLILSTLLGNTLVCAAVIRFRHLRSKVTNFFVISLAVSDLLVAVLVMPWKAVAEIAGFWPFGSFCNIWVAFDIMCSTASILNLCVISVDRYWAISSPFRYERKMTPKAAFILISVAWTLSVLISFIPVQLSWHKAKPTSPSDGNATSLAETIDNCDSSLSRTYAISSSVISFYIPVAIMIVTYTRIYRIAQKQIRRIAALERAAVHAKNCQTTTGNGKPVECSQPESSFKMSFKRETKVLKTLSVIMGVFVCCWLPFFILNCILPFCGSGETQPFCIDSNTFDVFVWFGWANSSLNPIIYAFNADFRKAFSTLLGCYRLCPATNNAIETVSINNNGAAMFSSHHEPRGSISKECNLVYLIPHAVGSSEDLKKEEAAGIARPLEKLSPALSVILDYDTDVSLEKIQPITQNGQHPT
T1 sequence (P21918 whole entry): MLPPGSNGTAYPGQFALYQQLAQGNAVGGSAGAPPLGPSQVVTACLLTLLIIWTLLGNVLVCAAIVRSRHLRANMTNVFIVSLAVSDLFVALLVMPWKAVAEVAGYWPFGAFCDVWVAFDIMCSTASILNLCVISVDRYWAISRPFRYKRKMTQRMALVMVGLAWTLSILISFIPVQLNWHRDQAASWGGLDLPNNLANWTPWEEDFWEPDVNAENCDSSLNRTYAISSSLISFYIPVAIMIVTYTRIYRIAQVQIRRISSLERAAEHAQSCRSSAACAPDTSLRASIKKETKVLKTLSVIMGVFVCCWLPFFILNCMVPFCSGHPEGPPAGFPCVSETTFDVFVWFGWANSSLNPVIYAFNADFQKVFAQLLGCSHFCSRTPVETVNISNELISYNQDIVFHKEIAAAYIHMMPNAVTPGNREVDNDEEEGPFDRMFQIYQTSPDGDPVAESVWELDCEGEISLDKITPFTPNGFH
T2 sequence (P50406 whole entry): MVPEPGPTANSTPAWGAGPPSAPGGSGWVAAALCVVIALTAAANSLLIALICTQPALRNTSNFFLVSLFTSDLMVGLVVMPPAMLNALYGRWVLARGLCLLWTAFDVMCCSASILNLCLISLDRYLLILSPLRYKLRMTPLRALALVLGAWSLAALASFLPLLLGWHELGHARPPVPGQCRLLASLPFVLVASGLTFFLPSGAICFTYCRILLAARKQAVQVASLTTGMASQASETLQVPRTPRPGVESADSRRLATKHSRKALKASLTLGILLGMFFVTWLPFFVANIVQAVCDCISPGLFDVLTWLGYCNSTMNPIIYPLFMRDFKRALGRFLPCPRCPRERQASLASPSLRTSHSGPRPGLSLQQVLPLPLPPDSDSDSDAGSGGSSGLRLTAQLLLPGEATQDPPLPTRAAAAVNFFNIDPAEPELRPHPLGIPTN

## CC1=C(/C=C/C(C)=C/C=C/C(C)=C/C(=O)O)C(C)(C)CCC1 [ATRA, all-trans-retinoic acid]
[1]
  current response in oocytes injected with only CFTR mRNA: no such current was observed
[2]
  cAMP response: no response
[3]
  cAMP response: no response
[4]
  cAMP response: no response
[5]
  IP release: not IP release
